From US4150126A, “Novel enol esters of steroids, compositions containing such compounds, processes for their preparation and methods of treatment therewith” (Aktiebolaget Leo, priority 1976, dated 1979)

Columns and labels:
[1] = Progestional activity, Clauberg test; assay type: in vivo; conditions: standard scale of McPhail, preliminary experiments
From the text: The progestional activities of compounds 1:1, 1:2, 1:14, 2:2, and 2:11 are investigated in the Clauberg test using the prinicpal procedure as described by Elton and Edgren (Endocrinology 63 (1958) 464) and using the standard scale of McPhail (J. Physiol., London, 8 (1934) 145).

[2] = tested on: Walker carcinosarcoma 256; test: Walker carcinosarcoma 256 tumour growth inhibition in rats, p.o.; assay type: in vivo, Sprague-Dawley rats; conditions: Walker carcinosarcoma 256, daily p.o. for 5 days
From the text: (§1) LD50 is the dose that causes a 50 percent lethality of the animals, and ED50 is the dose that causes a 50 percent reduction of tumour size.
(§2) From the data below it is obvious that the compounds have a very low toxicity, and that the therapeutic indexes (T.I.), i.e. the ratios LD50/ED50, are very high.
(§3) The experimental design is in accordance with the standards set by the CCNSC (Cancer Cheomotherapy Reports, January 1959 and December 1962).
Walker carcinosarcoma 256
(§4) Experimental animals: Sprague-Dawley rats.
Tumour implant: Tumour pieces with 2-4 mm diameter, subcu-
Therapy: Daily p.o. administration for 5 days starting on
the day following implantation.
Termination: The animals are killed on the 9th day.
(§5) Evaluation: Weights of tumours of test animals are compared
(§6) with those of control animals.

[3] = Thymolytic activity (Hilger, Endocrine Bioassay Data, assay 8); assay type: in vivo; conditions: preliminary experiments
From the text: In preliminary experiments, invvestigating the thymolytic effect according to A. C.

[4] = tested on: Hepatoma AH 130; test: Hepatoma AH 130 tumour growth inhibition in rats, i.p.; assay type: in vivo, Sprague-Dawley rats; conditions: Hepatoma AH 130, one injection i.p.
From the text: as §1, §2, §3, §4
Tumour implant: 5 × 10^6 tumour cells i.p.
(§7) Therapy: One injection i.p. on the day following implantation.
(§8) Termination: The animals are killed on the 8th day.
as §5, §6

[5] = tested on: Ehrlich ascites tumour, ELD hyperdiploid (46 chromosomes); test: Ehrlich ascites tumour growth inhibition in mice, i.p.; assay type: in vivo, SPF NMRI mice; conditions: one injection i.p.; for Tumour weight Treated/Control (%): killed on 8th day
From the text: as §3
Ehrlich ascites tumour, ELD hyperdiploid
Experimental animals: SPF NMRI mice.
Tumour implant: 2 × 10^6 tumour cells i.p.
as §7, §8
Evaluation: Weight of tumours of test animals compared with
those of control animals.

[6] = tested on: ventral prostate; test: Androgenic effect in castrated male rats (ventral prostate weight); assay type: in vivo; conditions: both after subcutaneous and intraperitoneal administration; one daily injection for 7 days; preliminary experiments
Experimental: The androgenic activity, as described below, is determined with established methods (see e.g. Dorfman, R.: Methods in Hormone Research, vol. II, Acad. Press, New York and London 1962, p. 275).
The androgenic effect is assayed in castrated male rats. Beginning two weeks after castration the animals are given one daily injection of the compound for 7 days. The weight of the ventral prostate is determined on the 8th day.

CC(=O)[C@H]1CC[C@H]2[C@@H]3CC=C4C=C(OC(=O)CCCc5ccc(N(CCCl)CCCl)cc5)CC[C@]4(C)[C@H]3CC[C@]12C [Compound 1:2, 3-/4-(4-(N,N-bis(2-chloroethyl)amino)phenyl)butanoyloxy/pregna-3,5-dien-20-one]
progestional activity [1]: considerable activity

CC(=O)O[C@H]1CC[C@H]2[C@@H]3CC[C@H]4CC(OC(=O)c5ccc(C)c(N(CCCl)CCCl)c5)=CC[C@]4(C)[C@H]3CC[C@]12C [Compound 2:1, 17β-acetoxy-3-/3-(N,N-bis(2-chloroethyl)amino)-4-methylbenzoyloxy/androst-2-ene]
anti-tumour activity [2]: exhibit anti-tumour activity

CC(=O)OCC(=O)[C@@]1(OC(C)=O)CC[C@H]2[C@@H]3CC=C4C=C(OC(=O)CCCc5ccc(N(CCCl)CCCl)cc5)CC[C@]4(C)[C@H]3C(=O)C[C@@]21C [1:15, 17,21-diacetoxy-3-[4-(4-(N,N-bis(2-chloroethyl)amino)phenyl)butanoyloxy]pregna-3,5-dien-11,20-dione]
thymolytic effect [3]: significant activity

CC(=O)O[C@]1(C(C)=O)CC[C@H]2[C@@H]3CC=C4C=C(OC(=O)CCCc5ccc(N(CCCl)CCCl)cc5)CC[C@]4(C)[C@H]3CC[C@@]21C [Compound 1:1, 17-acetoxy-3-/4-(4-(N,N-bis(2-chloroethyl)amino)phenyl)butanoyloxy/pregna-3,5-dien-20-one]
anti-tumour activity [4]: exhibit anti-tumour activity | Mortality ([5]; 500 mg/kg): 0/12 | Tumour weight Treated/Control (%) ([5]; 500 mg/kg): 1% | progestional activity [1]: considerable activity

CC(=O)O[C@]1(C(C)=O)CC[C@H]2[C@@H]3CC=C4C=C(OC(=O)c5ccc(C)c(N(CCCl)CCCl)c5)CC[C@]4(C)[C@H]3CC[C@@]21C [2:11, 17-acetoxy-3-[3-(N,N-bis(2-chloroethyl)amino)-4-methylbenzoyloxy]pregna-3,5-dien-20-one]
Mortality ([5]; 1000 mg/kg): 0/12 | Tumour weight Treated/Control (%) ([5]; 1000 mg/kg): 2% | progestional activity [1]: considerable activity

CC(=O)OCC(=O)[C@@]1(OC(C)=O)CC[C@H]2[C@@H]3CC=C4C=C(OC(=O)CCCc5ccc(N(CCCl)CCCl)cc5)CC[C@]4(C)[C@H]3CC[C@@]21C [1:16, 17,21-diacetoxy-3-[4-(4-(N,N-bis(2-chloroethyl)amino)phenyl)butanoyloxy]-pregna-3,5-dien-20-one]
thymolytic effect [3]: significant activity

CC(=O)OCC(=O)[C@H]1CC[C@H]2[C@@H]3CC=C4C=C(OC(=O)CCCc5ccc(N(CCCl)CCCl)cc5)CC[C@]4(C)[C@H]3CC[C@]12C [1:17, 21-acetoxy-3-[4-(4-(N,N-bis(2-chloroethyl)amino)phenyl)butanoyloxy]-pregna-3,5-dien-20-one]
thymolytic effect [3]: significant activity

CCC(=O)O[C@H]1CC[C@H]2[C@@H]3CC=C4C=C(OC(=O)[C@H](Cc5ccc(N(CCCl)CCCl)cc5)NC(C)=O)CC[C@]4(C)[C@H]3CC[C@]12C [1:13, 3-[(2S)-2-acetamido-3-(4-(N,N-bis(2-chloroethyl)amino)phenyl)propanoyloxy]-17β-propanoyloxyandrosta-3,5-diene]
anti-tumour activity [4]: exhibit anti-tumour activity

CC(=O)O[C@H]1CC[C@H]2[C@@H]3CCC4CC(OC(=O)CCCc5ccc(N(CCCl)CCCl)cc5)=CC[C@]4(C)[C@H]3CC[C@]12C (stereo partly drawn) [1:12, 17β-acetoxy-3-[4-(4-(N,N-bis(2-chloroethyl)amino)phenyl)butanoyloxy]androst-2-ene]
androgenic effect [6]: considerable effect

C#C[C@]1(OC(C)=O)CC[C@H]2[C@@H]3CC=C4C=C(OC(=O)CCCc5ccc(N(CCCl)CCCl)cc5)CC[C@@H]4[C@H]3CC[C@@]21C [Compound 2:2, 17β-acetoxy-3/4-(4-(N,N-bis(2-chloroethyl)amino)phenyl)butanoyloxy/-17α-ethynylestra-3,5-diene]
progestional activity [1]: considerable activity

CC(=O)O[C@H]1CC[C@H]2[C@@H]3CC=C4C=C(OC(=O)Cc5ccc(N(CCCl)CCCl)cc5)CC[C@]4(C)[C@H]3CC[C@]12C [1:3]
androgenic effect [6]: considerable effect

CC(=O)O[C@]1(C(C)=O)CC[C@H]2[C@@H]3CC=C4C=C(OC(=O)Cc5ccc(N(CCCl)CCCl)cc5)CC[C@]4(C)[C@H]3CC[C@@]21C [Compound 1:14, 17-acetoxy-3-[4-(N,N-bis(2-chloroethyl)amino)phenylacetoxy]pregna-3,5-dien-20-one]
progestional activity [1]: considerable activity

CC(=O)O[C@H]1CC[C@H]2[C@@H]3CC=C4C=C(OC(=O)CCCc5ccc(N(CCCl)CCCl)cc5)CC[C@]4(C)[C@H]3CC[C@]12C [1:11, 17β-acetoxy-3-[4-(4-(N,N-bis(2-chloroethyl)amino)phenyl)butanoyloxy]androsta-3,5-diene]
androgenic effect [6]: considerable effect
